Data as given in ChEMBL document CHEMBL1201862, “PubChem BioAssay data set” (2004).
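These data come from cells grown in 96-well plates and exposed to compound for 48 hours at five concentrations. GI50 marks 50% less growth.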 Activity calls are given as the source filed them. No stated cut-off is given here; in the data, active = GI50 up to about 1.1 µM and inactive = higher.

Tests used:
Assay in all cases: NCI-60 cell line screen, 48 h
COLO 205 = system: COLO 205
SR = system: SR
EKVX = system: EKVX
TK-10 = system: TK-10
HT-29 = system: HT-29
A498 = system: A498
OVCAR-8 = system: OVCAR-8
SN12C = system: SN12C
M14 = system: M14
SW-620 = system: SW-620
T47D = system: T47D
NCI-H460 = system: NCI-H460
NCI-H23 = system: NCI-H23
RPMI-8226 = system: RPMI-8226
NCI-H226 = system: NCI-H226
UACC-62 = system: UACC-62
HOP-92 = system: HOP-92
PC-3 = system: PC-3
SF-268 = system: SF-268
SNB-19 = system: SNB-19
HOP-62 = system: HOP-62
OVCAR-5 = system: OVCAR-5
U-251 = system: U-251
MDA-MB-435 = system: MDA-MB-435
SK-OV-3 = system: SK-OV-3
CAKI-1 = system: CAKI-1
SF-295 = system: SF-295
SK-MEL-28 = system: SK-MEL-28
786-0 = system: 786-0
IGROV-1 = system: IGROV-1
MOLT-4 = system: MOLT-4
LOX IMVI = system: LOX IMVI
RXF 393 = system: RXF 393
NCI-H522 = system: NCI-H522
A549 = system: A549
OVCAR-3 = system: OVCAR-3
MCF7 = system: MCF7
ACHN = system: ACHN
Hs-578T = system: Hs-578T
HCT-15 = system: HCT-15
MDA-MB-231 = system: MDA-MB-231
BT-549 = system: BT-549
K562 = system: K562
SF-539 = system: SF-539
Malme-3M = system: Malme-3M
DU-145 = system: DU-145
MDA-N = system: MDA-N
SK-MEL-5 = system: SK-MEL-5
UACC-257 = system: UACC-257
SK-MEL-2 = system: SK-MEL-2
HCT-116 = system: HCT-116
OVCAR-4 = system: OVCAR-4
UO-31 = system: UO-31
NCI/ADR-RES = system: NCI/ADR-RES
KM12 = system: KM12
HL-60 = system: HL-60
CCRF-CEM = system: CCRF-CEM
SNB-75 = system: SNB-75
HCC 2998 = system: HCC 2998

C[N+]1(C)CCc2cc(O)c(O)cc2C1Cc1ccc(O)c(O)c1 (stereo unspecified)
GI50 (COLO 205): > 100 µM (inactive) | GI50 (SR): 34.8 µM (inactive) | GI50 (EKVX): > 100 µM (inactive) | GI50 (TK-10): 94.8 µM (inactive) | GI50 (HT-29): 34.8 µM (inactive) | GI50 (A498): > 100 µM (inactive) | GI50 (OVCAR-8): 35.2 µM (inactive) | GI50 (SN12C): 38.2 µM (inactive) | GI50 (M14): 92.7 µM (inactive) | GI50 (SW-620): 28.4 µM (inactive) | GI50 (T47D): 23 µM (inactive) | GI50 (NCI-H460): 63.7 µM (inactive) | GI50 (NCI-H23): > 100 µM (inactive) | GI50 (RPMI-8226): 22.2 µM (inactive) | GI50 (NCI-H226): 39.2 µM (inactive) | GI50 (UACC-62): 29.9 µM (inactive) | GI50 (HOP-92): 27.1 µM (inactive) | GI50 (PC-3): > 100 µM (inactive) | GI50 (SF-268): 39.6 µM (inactive) | GI50 (SNB-19): > 100 µM (inactive) | GI50 (HOP-62): > 100 µM (inactive) | GI50 (OVCAR-5): > 100 µM (inactive) | GI50 (U-251): > 100 µM (inactive) | GI50 (MDA-MB-435): 20.2 µM (inactive) | GI50 (SK-OV-3): > 100 µM (inactive) | GI50 (CAKI-1): 50.9 µM (inactive) | GI50 (SF-295): > 100 µM (inactive) | GI50 (SK-MEL-28): 99.8 µM (inactive) | GI50 (786-0): 40.6 µM (inactive) | GI50 (IGROV-1): 28 µM (inactive) | GI50 (MOLT-4): 23 µM (inactive) | GI50 (LOX IMVI): 27.7 µM (inactive) | GI50 (RXF 393): 39.9 µM (inactive) | GI50 (NCI-H522): 22.5 µM (inactive) | GI50 (A549): > 100 µM (inactive) | GI50 (OVCAR-3): 69 µM (inactive) | GI50 (MCF7): 19.8 µM (inactive) | GI50 (ACHN): 35.3 µM (inactive) | GI50 (Hs-578T): 86.9 µM (inactive) | GI50 (HCT-15): 36 µM | GI50 (MDA-MB-231): 31.1 µM (inactive) | GI50 (BT-549): > 100 µM (inactive) | GI50 (K562): 34 µM (inactive) | GI50 (SF-539): 50.4 µM (inactive) | GI50 (Malme-3M): 32.1 µM (inactive) | GI50 (DU-145): > 100 µM (inactive) | GI50 (MDA-N): 32.2 µM (inactive) | GI50 (SK-MEL-5): 48.2 µM (inactive) | GI50 (UACC-257): 31.2 µM (inactive) | GI50 (SK-MEL-2): 1.11 µM (active) | GI50 (HCT-116): 22.4 µM (inactive) | GI50 (OVCAR-4): 22.1 µM (inactive) | GI50 (UO-31): 92 µM (inactive) | GI50 (NCI/ADR-RES): 79.4 µM (inactive) | GI50 (KM12): > 100 µM (inactive) | GI50 (HL-60): 18.3 µM (inactive)

O=C(Nc1cc(Cl)c(I)c(Cl)c1)C(F)(F)F
GI50 (COLO 205): 21.5 µM (inactive) | GI50 (SR): 30.8 µM (inactive) | GI50 (EKVX): 18.3 µM (inactive) | GI50 (CCRF-CEM): 24.8 µM (inactive) | GI50 (HT-29): 19.8 µM (inactive) | GI50 (A498): 22.9 µM (inactive) | GI50 (OVCAR-8): 20.1 µM (inactive) | GI50 (SN12C): 35.5 µM (inactive) | GI50 (M14): 23.2 µM (inactive) | GI50 (SW-620): 45.3 µM (inactive) | GI50 (T47D): 25.8 µM (inactive) | GI50 (NCI-H460): 27.1 µM (inactive) | GI50 (SNB-75): 20.8 µM (inactive) | GI50 (NCI-H23): 26.2 µM (inactive) | GI50 (RPMI-8226): 31.1 µM (inactive) | GI50 (NCI-H226): 23.1 µM (inactive) | GI50 (UACC-62): 20.3 µM (inactive) | GI50 (HCC 2998): 20 µM (inactive) | GI50 (HOP-92): 20.3 µM (inactive) | GI50 (PC-3): 31.1 µM (inactive) | GI50 (SF-268): 27.1 µM (inactive) | GI50 (SNB-19): 35.9 µM (inactive) | GI50 (HOP-62): 31.2 µM (inactive) | GI50 (OVCAR-5): 22.8 µM (inactive) | GI50 (U-251): 40.4 µM (inactive) | GI50 (MDA-MB-435): 30.3 µM (inactive) | GI50 (SK-OV-3): 31 µM (inactive) | GI50 (CAKI-1): 19.9 µM (inactive) | GI50 (SF-295): 33.3 µM (inactive) | GI50 (SK-MEL-28): 25.2 µM (inactive) | GI50 (786-0): 29 µM (inactive) | GI50 (IGROV-1): 27.2 µM (inactive) | GI50 (MOLT-4): 26.5 µM (inactive) | GI50 (RXF 393): 16.7 µM (inactive) | GI50 (NCI-H522): 21.7 µM (inactive) | GI50 (OVCAR-3): 24.9 µM (inactive) | GI50 (MCF7): 38.4 µM (inactive) | GI50 (ACHN): 30.3 µM (inactive) | GI50 (Hs-578T): 22.4 µM (inactive) | GI50 (HCT-15): 18 µM | GI50 (MDA-MB-231): 30.1 µM (inactive) | GI50 (BT-549): 25.9 µM (inactive) | GI50 (K562): 28.2 µM (inactive) | GI50 (SF-539): > 10 µM (inactive) | GI50 (Malme-3M): > 10 µM (inactive) | GI50 (DU-145): 42 µM (inactive) | GI50 (MDA-N): 35.8 µM (inactive) | GI50 (SK-MEL-5): 18.7 µM (inactive) | GI50 (UACC-257): 45.6 µM (inactive) | GI50 (HCT-116): 24.5 µM (inactive) | GI50 (OVCAR-4): 31.1 µM (inactive) | GI50 (UO-31): 23.6 µM (inactive) | GI50 (NCI/ADR-RES): 34.8 µM (inactive) | GI50 (KM12): 27.5 µM (inactive) | GI50 (HL-60): 19.2 µM (inactive)
